PubChem BioAssay AID651799 (The Scripps Research Institute Molecular Screening Center, 2012)
Active and inactive are the calls of the source. No rule for the calls is given here.

Biological target: Nuclear receptor coactivator 2 (Homo sapiens) (UniProt Q15596)
Test: NCOA2-driven reporter transcription inhibition – cell-based, luciferase reporter, luminescence, selectivity assay for SRC1 inhibitor project, late-stage follow-up (AID 651799)
Conditions: cell-based SRC2 luciferase reporter

Nuclear receptor coactivator 2 (Homo sapiens), sequence (Q15596 whole entry, looked up): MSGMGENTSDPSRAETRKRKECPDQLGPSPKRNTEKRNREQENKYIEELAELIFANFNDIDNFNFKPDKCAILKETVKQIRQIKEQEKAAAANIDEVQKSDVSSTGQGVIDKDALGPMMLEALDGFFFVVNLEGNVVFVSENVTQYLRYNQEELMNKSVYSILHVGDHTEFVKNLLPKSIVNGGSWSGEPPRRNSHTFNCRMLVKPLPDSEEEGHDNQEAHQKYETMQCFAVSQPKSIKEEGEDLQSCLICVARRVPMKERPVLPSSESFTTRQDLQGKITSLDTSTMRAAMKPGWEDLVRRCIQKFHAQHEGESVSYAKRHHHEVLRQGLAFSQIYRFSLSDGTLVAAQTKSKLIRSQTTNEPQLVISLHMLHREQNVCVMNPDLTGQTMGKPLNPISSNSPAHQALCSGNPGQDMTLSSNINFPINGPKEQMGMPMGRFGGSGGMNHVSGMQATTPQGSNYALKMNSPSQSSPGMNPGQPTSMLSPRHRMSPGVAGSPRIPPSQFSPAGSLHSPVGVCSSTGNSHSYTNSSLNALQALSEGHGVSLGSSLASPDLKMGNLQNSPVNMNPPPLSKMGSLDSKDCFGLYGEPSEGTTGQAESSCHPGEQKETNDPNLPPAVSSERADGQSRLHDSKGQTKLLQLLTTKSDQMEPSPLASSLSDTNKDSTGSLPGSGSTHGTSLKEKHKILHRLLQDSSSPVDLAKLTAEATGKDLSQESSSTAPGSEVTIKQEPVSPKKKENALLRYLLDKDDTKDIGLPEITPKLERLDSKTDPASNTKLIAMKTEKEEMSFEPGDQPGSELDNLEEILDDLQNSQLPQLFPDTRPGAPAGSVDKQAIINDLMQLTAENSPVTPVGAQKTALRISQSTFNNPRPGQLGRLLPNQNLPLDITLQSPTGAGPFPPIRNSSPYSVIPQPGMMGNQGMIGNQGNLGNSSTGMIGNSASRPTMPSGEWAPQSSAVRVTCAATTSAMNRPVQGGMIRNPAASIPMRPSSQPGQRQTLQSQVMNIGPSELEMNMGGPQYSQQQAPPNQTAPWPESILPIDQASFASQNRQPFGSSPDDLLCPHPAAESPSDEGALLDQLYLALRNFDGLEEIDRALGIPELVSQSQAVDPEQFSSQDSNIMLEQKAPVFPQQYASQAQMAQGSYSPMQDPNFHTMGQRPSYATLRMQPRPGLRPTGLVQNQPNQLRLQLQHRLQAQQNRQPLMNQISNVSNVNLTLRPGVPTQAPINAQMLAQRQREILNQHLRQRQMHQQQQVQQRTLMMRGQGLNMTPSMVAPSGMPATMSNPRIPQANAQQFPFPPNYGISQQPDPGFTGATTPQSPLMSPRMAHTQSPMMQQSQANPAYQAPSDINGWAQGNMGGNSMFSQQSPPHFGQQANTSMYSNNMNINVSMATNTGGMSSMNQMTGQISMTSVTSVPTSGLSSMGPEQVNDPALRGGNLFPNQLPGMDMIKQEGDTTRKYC

| Compound | IC50 |
| --- | --- |
| COc1ccc(Nc2ncnc3ccc(Br)cc23)c(OC)c1 | inactive |
| COc1ccc(NC(=O)CN(C)C(=O)C2(c3ccccc3)CCCC2)cc1 | inactive |
